“Also recorded” adds a separate entry of the source. Read-outs that look alike come from different tables or passages of the source.
How the values were obtained:
[1] = tested on: Plasmodium falciparum (3D7, a drug sensitive strain); assay: Malaria assay: anti-malarial activity against Plasmodium falciparum (3D7); assay type: cell-based
[2] = tested on: A549 human lung adenocarcinoma epithelial cells
[3] = tested on: A549 human lung adenocarcinoma epithelial cells; assay: In vitro toxicity assay: cytotoxicity against A549 cells (CellTiter 96 Aqueous One, 72 h); settings: for IC50: Homo sapiens, A549, 72 h, read-out: IC50 (nM) A549
[4] = Plasmodium falciparum, 3D7, read-out: IC50 (nM) 3D7
[5] = Plasmodium falciparum 3D7, read-out: IC50 (nM) 3D7

| Structure (SMILES) | IC50 [1, 4] | IC50 [3] | IC50 [1, 5] | further results |
| --- | --- | --- | --- | --- |
| CC(=O)OC1C=CC(C)(O)C(=O)C(C)CC=CC2C3OC3(C)C(C)C3C(Cc4ccccc4)N(C)C(=O)C123 (centres unmarked) [Compound 8] | 26 nM | – | – | – |
| CC(=O)OC[C@]12Oc3ccc(-c4ccc5c(c4O)C(=O)C4=C(O)C[C@@H](C)[C@@H](OC(C)=O)[C@]4(CO)O5)c(O)c3C(=O)C1=C(O)C[C@@H](C)[C@H]2OC(C)=O [Compound 14, dicerandrol D] | 600 nM | 7800 nM | – | antimalarial activity (in words) [1]: nanomolar antimalarial activity; also recorded: strong activity against P. falciparum; also recorded: nanomolar malaria activity; cytotoxicity relative to malaria activity ([2]; human): at least 10 fold; S.I. A549/3D7 (selectivity index) [3]: 13 |
| CC(=O)OC1C=CC(C)(O)C(=O)C(C)CC2OC2C2C3OC3(C)C(C)C3C(Cc4ccccc4)N(C)C(=O)C132 (centres unmarked) [Compound 7] | 290 nM | – | – | – |
| CCCc1c(Cl)c(OC)cc(OC)c1C(=O)O [Compound 11, acremonisol A] | – | > 38700 nM | 36000 nM | antimalarial activity (in words) ([1]; P. falciparum 3D7): devoid of antimalarial activity |
| CC(=O)OC1C=CC(C)(O)C(=O)C(C)CC=CC2C(O)C3(C)OC3(C)C3C(Cc4ccccc4)NC(=O)C123 (centres unmarked) [Compound 3] | < 20 nM | – | – | – |
| C=C1C2CC3OC(=O)C=CC=CC(C(C)O)OCCC(C)=CC(=O)OCC4(CCC(C)=CC4O2)C13C (centres unmarked) [Compound 10] | < 20 nM | < 200 nM | – | – |
| CC(=O)OC1C2OC2C(C)(O)C(=O)C(C)CC=CC2C(O)C(C)=C(C)C3C(Cc4ccccc4)NC(=O)C213 (centres unmarked) [Compound 1] | < 20 nM | – | – | – |
| O=C1C(O)=C([C@H]2CC[C@H](c3ccc(Cl)cc3)CC2)C(=O)c2ccccc21 [ATO, atovaquone, reference compound] | – | > 25000 nM | 0.3 nM | – |
| CCN(CC)CCCC(C)Nc1ccnc2cc(Cl)ccc12 (centres unmarked) [CQ, chloroquine, reference compound] | 4.5 nM | > 25000 nM | – | – |
| CCCCC/C=C(/C(=O)O)C(C)C(=O)O (centres unmarked) [Compound 19, piliformic acid] | – | > 25000 nM | > 25000 nM | antimalarial activity (in words) ([1]; P. falciparum 3D7): inactive |
| CC(=O)OC[C@]12Oc3ccc(-c4ccc5c(c4O)C(=O)C4=C(O)C[C@@H](C)[C@@H](OC(C)=O)[C@@]4(CO)O5)c(O)c3C(=O)C1=C(O)C[C@@H](C)[C@H]2OC(C)=O [Compound 13, Dicerandrol B] | > 25000 nM | > 25000 nM | – | antimalarial activity (in words) [1]: failed to show either activity; cytotoxicity (in words) [2]: failed to show either activity |
| C=C1C(C)C2C(Cc3ccccc3)NC(=O)C23C(O)C=CC(C)(O)CC(C)CC=CC3C1O (centres unmarked) [Compound 6] | – | – | < 20 nM | – |
| CC1CC(=O)OC1C1(CO)CC(=O)c2c(ccc(-c3ccc4c(c3O)C(=O)CC(CO)(C3OC(=O)CC3C)O4)c2O)O1 (centres unmarked) [Compound 16, Diaporthochromone B] | – | > 25000 nM | > 25000 nM | – |
| COc1ccc(C)c2c1C(=O)OC(C)C2 (centres unmarked) [Compound 12, 3,5-dimethyl-8-methoxy-3,4-dihydroisocoumarin] | – | > 48500 nM | > 48500 nM | antimalarial activity (in words) ([1]; P. falciparum 3D7): devoid of antimalarial activity |
| CCC(C)CC(C)/C=C/C=C/C(=O)O (centres unmarked) [Compound 18, (2E,4E)-6,8-Dimethyldeca-2,4-dienoic Acid] | – | > 25000 nM | > 25000 nM | antimalarial activity (in words) ([1]; P. falciparum 3D7): inactive |
| C=C1[C@@H](C)[C@H]2[C@H](Cc3ccccc3)NC(=O)[C@]23[C@H](OC(C)=O)/C=C/[C@@](C)(O)C(=O)[C@@H](C)C/C=C/[C@H]3[C@@H]1O [Compound 4, cytochalasin D] | 25.8 nM | – | – | – |
| C[C@H]1CC(=O)O[C@@H]1[C@@]1(CO)CC(=O)c2c(ccc(-c3ccc(O)c4c3O[C@](CO)([C@H]3OC(=O)C[C@@H]3C)CC4=O)c2O)O1 [Compound 15, diaporthochromone A] | – | > 25000 nM | > 25000 nM | – |
| CC(=O)OC1C=CC(C)(O)C(=O)C(C)CC=CC2C(O)C(C)=C(C)C3C(Cc4ccccc4)NC(=O)C123 (centres unmarked) [Compound 2] | 136 nM | – | – | – |
| C=C1C(C)C2C(Cc3ccccc3)NC(=O)C23C(OC(C)=O)C=CC(C)(O)CC(C)CC=CC3C1O (centres unmarked) [Compound 5] | < 20 nM | – | – | – |
| C[C@H]1[C@@H](O)O[C@@H]2O[C@@]3(C)CC[C@H]4[C@H](C)CC[C@@H]1[C@@]24OO3 [DHA, dihydroartemisinin, reference compound] | – | > 25000 nM | 0.8 nM | – |

Source: article PMC3877901, “Screening Mangrove Endophytic Fungi for Antimalarial Natural Products” (Marine Drugs, 2013)
